These results are taken from PMC9833666, “Designing and identifying β-hairpin peptide macrocycles with antibiotic potential” (Science Advances, 2023).

SMILES strings stand for the structures. Bridge positions count the residues as written; N and C are the ends. Peptide text beside a SMILES is read from it.

The test system of the experiment is Escherichia coli W3110. The format is cell-based. The note with it: W3110.
Description: MICs were performed by a modifiedClinical and Laboratory Standards Institute) procedure. […] Separately, E. coli W3110 or A. baumannii AB5075 was grown overnight in 5 ml of standard MH at 37°C. Cells from these cultures were diluted to a concentration of 5 × 10^5 to 6 × 10^5 cells/ml in either standard MH, MHII, RPMI, or fetal bovine serum, and 90 μl was added to each well of the 96-well plate containing diluted peptide. Plates were wrapped twice in parafilm and incubated at 37°C for 18 to 24 hours. Wells were examined by eye against wells with no bacteria for signs of growth. MICs were reported as the minimum concentration with no observable growth. In cases where triplicate samples differed, the concentration supported by the median of the three replicates was reported.
As to `CC[C@H](C)[C@@H]1NC(=O)[C@H]([C@@H](C)O)NC(=O)[C@H](CC(C)C)NC(=O)[C@@H](N)CSSC[C@@H](C(=O)O)NC(=O)[C@H](C(C)C)NC(=O)[C@H](CCC(=O)O)NC(=O)[C@H](C(C)C)NC(=O)[C@H](CO)NC(=O)[C@H](C(C)C)NC(=O)[C@H](CCCCN)NC(=O)[C@H](C(C)C)NC(=O)[C@H](CCCNC(=N)N)NC(=O)[C@H](CO)NC(=O)[C@H](CCCNC(=N)N)NC(=O)[C@H](CCCNC(=N)N)NC(=O)[C@H](CC(=O)O)NC(=O)[C@H](CC(=O)O)NC(=O)[C@H](CC(C)C)NC(=O)[C@H](CCCNC(=N)N)NC1=O` [SyRA-1] (H-CLTIRLDDRRSRVKVSVEVC-OH; disulfide 1-20), the “W3110 MIC” value is more than 256 µg/mL. For `CC[C@H](C)[C@@H]1NC(=O)[C@H](CCCNC(=N)N)NC(=O)[C@H](CC(C)C)NC(=O)[C@@H](N)CSSC[C@@H](C(=O)O)NC(=O)[C@H](C(C)C)NC(=O)[C@H](CCC(N)=O)NC(=O)[C@H](C(C)C)NC(=O)[C@H]([C@@H](C)O)NC(=O)[C@H]([C@@H](C)CC)NC(=O)[C@H](CCCNC(=N)N)NC(=O)[C@H](C(C)C)NC(=O)CNC(=O)CNC(=O)[C@H](CCCNC(=N)N)NC(=O)[C@H](CCCNC(=N)N)NC(=O)[C@H](CC(N)=O)NC(=O)[C@H](CC(N)=O)NC(=O)[C@H](C(C)C)NC(=O)[C@H](CCCNC(=N)N)NC1=O` [SyRA-2] (H-CLRIRVNNRRGGVRITVQVC-OH; disulfide 1-20), the “W3110 MIC” value was more than 256 µg/mL. The figure for `CC(C)C[C@@H]1NC(=O)[C@H](CCCNC(=N)N)NC(=O)[C@H](C(C)C)NC(=O)[C@H](CCCNC(=N)N)NC(=O)[C@H](CC(C)C)NC(=O)[C@@H](N)CSSC[C@@H](C(=O)O)NC(=O)[C@H](C(C)C)NC(=O)[C@H](CCC(N)=O)NC(=O)[C@H](C(C)C)NC(=O)[C@H](CO)NC(=O)[C@H](C(C)C)NC(=O)[C@H](CCCCN)NC(=O)[C@H](C(C)C)NC(=O)[C@H](CCCNC(=N)N)NC(=O)[C@H](CCCNC(=N)N)NC(=O)CNC(=O)CNC(=O)[C@H](CC(N)=O)NC(=O)[C@H](CC(N)=O)NC1=O` [SyRA-3] (H-CLRVRLNNGGRRVKVSVQVC-OH; disulfide 1-20) is more than 256 µg/mL; for `CC[C@H](C)[C@@H]1NC(=O)[C@H](CCCCN)NC(=O)[C@H](C(C)C)NC(=O)[C@H](CCCNC(=N)N)NC(=O)[C@H](CO)NC(=O)[C@H](CCCNC(=N)N)NC(=O)[C@H](CCCNC(=N)N)NC(=O)[C@H](CC(N)=O)NC(=O)[C@H](CC(=O)O)NC(=O)[C@H](C(C)C)NC(=O)[C@H](CCCNC(=N)N)NC(=O)[C@H]([C@@H](C)CC)NC(=O)[C@H]([C@@H](C)O)NC(=O)[C@H](CC(C)C)NC(=O)[C@@H](N)CSSC[C@@H](C(=O)O)NC(=O)[C@H](C(C)C)NC(=O)[C@H](CCC(=O)O)NC(=O)[C@H](CC(C)C)NC(=O)[C@H]([C@@H](C)O)NC1=O` [SyRA-4] (H-CLTIRVDNRRSRVKITLEVC-OH; disulfide 1-20) it is more than 256 µg/mL; for `CC[C@H](C)[C@@H]1NC(=O)[C@H](CCCNC(=N)N)NC(=O)[C@H](C(C)C)NC(=O)CNC(=O)[C@H](CCCNC(=N)N)NC(=O)CNC(=O)CNC(=O)[C@H](CC(N)=O)NC(=O)[C@H](CC(=O)O)NC(=O)[C@H](CC(C)C)NC(=O)[C@H](CCCNC(=N)N)NC(=O)[C@H]([C@@H](C)CC)NC(=O)[C@H]([C@@H](C)O)NC(=O)[C@H](CC(C)C)NC(=O)[C@@H](N)CSSC[C@@H](C(=O)O)NC(=O)[C@H](C(C)C)NC(=O)[C@H](CCC(N)=O)NC(=O)[C@H](CC(C)C)NC(=O)[C@H](CO)NC1=O` [SyRA-5] (H-CLTIRLDNGGRGVRISLQVC-OH; disulfide 1-20) it is more than 256 µg/mL.

For `CC[C@H](C)[C@@H]1NC(=O)[C@H](CCCNC(=N)N)NC(=O)[C@H](C(C)C)NC(=O)CNC(=O)[C@H](CO)NC(=O)CNC(=O)CNC(=O)[C@H](CC(=O)O)NC(=O)[C@H](CC(N)=O)NC(=O)[C@H](CC(C)C)NC(=O)[C@H](CCCNC(=N)N)NC(=O)[C@H](C(C)C)NC(=O)[C@H](CCCNC(=N)N)NC(=O)[C@H](C(C)C)NC(=O)[C@@H](N)CSSC[C@@H](C(=O)O)NC(=O)[C@H](C(C)C)NC(=O)[C@H](CCC(N)=O)NC(=O)[C@H](C(C)C)NC(=O)[C@H](CO)NC1=O` [SyRA-6] (H-CVRVRLNDGGSGVRISVQVC-OH; disulfide 1-20), the “W3110 MIC” value was more than 256 µg/mL. Consider `CC[C@H](C)[C@@H]1NC(=O)[C@H](CCCCN)NC(=O)[C@H](C(C)C)NC(=O)CNC(=O)[C@H](CCCNC(=N)N)NC(=O)[C@H](CCCNC(=N)N)NC(=O)[C@H](CCCNC(=N)N)NC(=O)[C@H](CC(=O)O)NC(=O)[C@H](CC(N)=O)NC(=O)[C@H](CC(C)C)NC(=O)[C@H](CCCNC(=N)N)NC(=O)[C@H]([C@@H](C)CC)NC(=O)[C@H]([C@@H](C)O)NC(=O)[C@H](C(C)C)NC(=O)[C@@H](N)CSSC[C@@H](C(=O)O)NC(=O)[C@H](C(C)C)NC(=O)[C@H](CCC(=O)O)NC(=O)[C@H](C(C)C)NC(=O)[C@H](CO)NC1=O` [SyRA-7] (H-CVTIRLNDRRRGVKISVEVC-OH; disulfide 1-20), for which the “W3110 MIC” value was more than 256 µg/mL. For the molecule `CC[C@H](C)[C@@H]1NC(=O)[C@H]([C@@H](C)O)NC(=O)[C@H](C(C)C)NC(=O)[C@@H](N)CSSC[C@@H](C(=O)O)NC(=O)[C@H](C(C)C)NC(=O)[C@H](CCC(=O)O)NC(=O)[C@H](C(C)C)NC(=O)[C@H]([C@@H](C)O)NC(=O)[C@H](C(C)C)NC(=O)[C@H](CCCCN)NC(=O)[C@H](C(C)C)NC(=O)CNC(=O)CNC(=O)[C@H](CCCNC(=N)N)NC(=O)CNC(=O)[C@H](CC(N)=O)NC(=O)[C@H](CC(=O)O)NC(=O)[C@H](C(C)C)NC(=O)[C@H](CCCNC(=N)N)NC1=O` [SyRA-8] (H-CVTIRVDNGRGGVKVTVEVC-OH; disulfide 1-20), the “W3110 MIC” value was more than 256 µg/mL. The figure for `CC[C@H](C)[C@@H]1NC(=O)[C@H]([C@@H](C)O)NC(=O)[C@H](C(C)C)NC(=O)[C@@H](N)CSSC[C@@H](C(=O)O)NC(=O)[C@H](C(C)C)NC(=O)[C@H](CCC(N)=O)NC(=O)[C@H](C(C)C)NC(=O)[C@H]([C@@H](C)O)NC(=O)[C@H](C(C)C)NC(=O)[C@H](CCCNC(=N)N)NC(=O)[C@H](CC(C)C)NC(=O)CNC(=O)[C@H](CCCNC(=N)N)NC(=O)[C@H](CCCNC(=N)N)NC(=O)[C@H](CCCNC(=N)N)NC(=O)[C@H](CC(=O)O)NC(=O)[C@H](CC(=O)O)NC(=O)[C@H](CC(C)C)NC(=O)[C@H](CCCNC(=N)N)NC1=O` [SyRA-9] (H-CVTIRLDDRRRGLRVTVQVC-OH; disulfide 1-20) is more than 256 µg/mL. The figure for `CC[C@H](C)[C@@H]1NC(=O)[C@H](CCCNC(=N)N)NC(=O)[C@H](C(C)C)NC(=O)[C@H](CCCNC(=N)N)NC(=O)[C@H](CO)NC(=O)CNC(=O)CNC(=O)[C@H](CC(N)=O)NC(=O)[C@H](CC(N)=O)NC(=O)[C@H](C(C)C)NC(=O)[C@H](CCCNC(=N)N)NC(=O)[C@H]([C@@H](C)CC)NC(=O)[C@H](CCCNC(=N)N)NC(=O)[C@H](CC(C)C)NC(=O)[C@@H](N)CSSC[C@@H](C(=O)O)NC(=O)[C@H](C(C)C)NC(=O)[C@H](CCC(=O)O)NC(=O)[C@H](CC(C)C)NC(=O)[C@H](CO)NC1=O` [SyRA-10] (H-CLRIRVNNGGSRVRISLEVC-OH; disulfide 1-20) is more than 256 µg/mL.

On to `CC[C@H](C)[C@@H]1NC(=O)[C@H](CCCCN)NC(=O)[C@H](CC(C)C)NC(=O)CNC(=O)CNC(=O)[C@H](CCCNC(=N)N)NC(=O)[C@H](CCCNC(=N)N)NC(=O)[C@H](CC(=O)O)NC(=O)[C@H](CC(=O)O)NC(=O)[C@H](C(C)C)NC(=O)[C@H](CCCNC(=N)N)NC(=O)[C@H](C(C)C)NC(=O)[C@H](CCCNC(=N)N)NC(=O)[C@H](C(C)C)NC(=O)[C@@H](N)CSSC[C@@H](C(=O)O)NC(=O)[C@H](C(C)C)NC(=O)[C@H](CCC(N)=O)NC(=O)[C@H](CC(C)C)NC(=O)[C@H](CO)NC1=O` [SyRA-12] (H-CVRVRVDDRRGGLKISLQVC-OH; disulfide 1-20), for which the “W3110 MIC” value is more than 256 µg/mL. The figure for `CC[C@H](C)[C@@H]1NC(=O)[C@H](CCCNC(=N)N)NC(=O)[C@H](C(C)C)NC(=O)CNC(=O)[C@H](CO)NC(=O)[C@H](CCCNC(=N)N)NC(=O)CNC(=O)[C@H](CC(N)=O)NC(=O)[C@H](CC(=O)O)NC(=O)[C@H](CC(C)C)NC(=O)[C@H](CCCNC(=N)N)NC(=O)[C@H](C(C)C)NC(=O)[C@H]([C@@H](C)O)NC(=O)[C@H](C(C)C)NC(=O)[C@@H](N)CSSC[C@@H](C(=O)O)NC(=O)[C@H](C(C)C)NC(=O)[C@H](CCC(N)=O)NC(=O)[C@H](C(C)C)NC(=O)[C@H](CO)NC1=O` [SyRA-13] (H-CVTVRLDNGRSGVRISVQVC-OH; disulfide 1-20) is more than 256 µg/mL; for `CC[C@H](C)[C@@H]1NC(=O)[C@H](CCCCN)NC(=O)[C@H](CC(C)C)NC(=O)[C@H](CCCNC(=N)N)NC(=O)CNC(=O)CNC(=O)[C@H](CCCNC(=N)N)NC(=O)[C@H](CC(N)=O)NC(=O)[C@H](CC(N)=O)NC(=O)[C@H](C(C)C)NC(=O)[C@H](CCCNC(=N)N)NC(=O)[C@H](C(C)C)NC(=O)[C@H]([C@@H](C)O)NC(=O)[C@H](C(C)C)NC(=O)[C@@H](N)CSSC[C@@H](C(=O)O)NC(=O)[C@H](C(C)C)NC(=O)[C@H](CCC(N)=O)NC(=O)[C@H](CC(C)C)NC(=O)[C@H]([C@@H](C)O)NC1=O` [SyRA-14] (H-CVTVRVNNRGGRLKITLQVC-OH; disulfide 1-20) it is more than 256 µg/mL; for `CC[C@H](C)[C@@H]1NC(=O)[C@H](CCCNC(=N)N)NC(=O)[C@H](CC(C)C)NC(=O)[C@H](CCCNC(=N)N)NC(=O)[C@H](CO)NC(=O)[C@H](CCCNC(=N)N)NC(=O)[C@H](CCCNC(=N)N)NC(=O)[C@H](CC(=O)O)NC(=O)[C@H](CC(N)=O)NC(=O)[C@H](CC(C)C)NC(=O)[C@H](CCCNC(=N)N)NC(=O)[C@H](C(C)C)NC(=O)[C@H]([C@@H](C)O)NC(=O)[C@H](C(C)C)NC(=O)[C@@H](N)CSSC[C@@H](C(=O)O)NC(=O)[C@H](C(C)C)NC(=O)[C@H](CCC(=O)O)NC(=O)[C@H](CC(C)C)NC(=O)[C@H]([C@@H](C)O)NC1=O` [SyRA-15] (H-CVTVRLNDRRSRLRITLEVC-OH; disulfide 1-20) it is more than 256 µg/mL.
